From US20050112573A1, “Method of detecting toxic substance” (priority 2001, published 2005)

Test system: yeast genes (level of expressed mRNA)
Experiment: DNA chip analysis of expressed mRNA of yeast genes after 2 h culture with a toxic chemical substance
Format: cell-based, Saccharomyces cerevisiae S288C
Settings: for The level of expressed mRNA in the presence of chemical substance/ (ratio to absence of chemical substance): stress protein genes, DNA chip
Outline: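 Values are treated-to-control fluorescence ratios from a whole-yeast-genome DNA chip (65° C, over 12 h hybridization) using Cy3/Cy5-labelled cDNA from mRNA. Log-phase S288C cells in YPD at 25° C were exposed 2 h to a toxicant at sublethal, growth-inhibiting concentration.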

CCCCC[C@H](O)CC(=O)CCc1ccc(O)c(OC)c1 [(13), gingerol]
The level of expressed mRNA in the presence of chemical substance/ in its absence, gene YDL078C (yeast gene YDL078C, ratio of DNA chip fluorescence intensity to that without chemical substance): 1.0
The level of expressed mRNA in the presence of chemical substance/ (in its absence), gene YDL215C (yeast gene YDL215C, ratio of DNA chip fluorescence intensity to that without chemical substance): 1.5
The level of expressed mRNA in the presence of chemical substance/The level of expressed mRNA in the absence of chemical substance (yeast gene YDL238C): 2.0
The level of expressed mRNA in the presence of chemical substance/The level of expressed mRNA in the absence of chemical substance (yeast gene YDR055W): 3.1
The level of expressed mRNA in the presence of chemical substance/ (in its absence), gene YDR073W (yeast gene YDR073W, ratio of DNA chip fluorescence intensity to that without chemical substance): 0.6
The level of expressed mRNA in the presence of chemical substance/ in its absence, gene YDR079W (yeast gene YDR079W, energy system protein genes, 2 h culture with the chemical, ratio to control without chemical): 1.3
The level of expressed mRNA in the presence of chemical substance/ (ratio to absence), gene YDR079W (yeast gene YDR079W, mitochondria-located protein genes, 2 h culture with chemical): 1.3
The level of expressed mRNA in the presence of chemical substance/The level of expressed mRNA in the absence of chemical substance (yeast gene YDR084C): 1.0
The level of expressed mRNA in the presence of chemical substance/The level of expressed mRNA in the absence of chemical substance (yeast gene YDR085C): 1.1
The level of expressed mRNA in the presence of chemical substance/The level of expressed mRNA in the absence of chemical substance (yeast gene YDR104C): 1.6
The level of expressed mRNA in the presence of chemical substance/The level of expressed mRNA in the absence of chemical substance (yeast gene YDR115W): 1.1
The level of expressed mRNA in the presence of chemical substance/The level of expressed mRNA in the absence of chemical substance (yeast gene YDR259C): 2.0
The level of expressed mRNA in the presence of chemical substance/ (in its absence), gene YDR297W (yeast gene YDR297W, ratio of DNA chip fluorescence intensity to that without chemical substance): 0.8
The level of expressed mRNA in the presence of chemical substance/The level of expressed mRNA in the absence of chemical substance (yeast gene YDR315C): 1.6
The level of expressed mRNA in the presence of chemical substance/The level of expressed mRNA in the absence of chemical substance (yeast gene YDR358W): 3.2
The level of expressed mRNA in the presence of chemical substance/ (ratio to absence), gene YDR377W (yeast gene YDR377W, mitochondria-located protein genes, 2 h culture with chemical): 0.7
The level of expressed mRNA in the presence of chemical substance/ (in its absence), gene YDR387C (yeast gene YDR387C, ratio of DNA chip fluorescence intensity to that without chemical substance): 1.3
The level of expressed mRNA in the presence of chemical substance/The level of expressed mRNA in the absence of chemical substance (yeast gene YDR388W): 1.7
The level of expressed mRNA in the presence of chemical substance/The level of expressed mRNA in the absence of chemical substance (yeast gene YDR432W): 1.4
The level of expressed mRNA in the presence of chemical substance/The level of expressed mRNA in the absence of chemical substance (yeast gene YDR481C): 1.5
The level of expressed mRNA in the presence of chemical substance/The level of expressed mRNA in the absence of chemical substance (yeast gene YDR510W): 2.0
The level of expressed mRNA in the presence of chemical substance/ (ratio to absence of chemical substance) (yeast gene YEL039C): 0.5
The level of expressed mRNA in the presence of chemical substance/The level of expressed mRNA in the absence of chemical substance (yeast gene YEL042W): 0.4
The level of expressed mRNA in the presence of chemical substance/The level of expressed mRNA in the absence of chemical substance (yeast gene YEL066W): 1.6
The level of expressed mRNA in the presence of chemical substance/ (in its absence), gene YER015W (yeast gene YER015W, ratio of DNA chip fluorescence intensity to that without chemical substance): 0.8
The level of expressed mRNA in the presence of chemical substance/The level of expressed mRNA in the absence of chemical substance (yeast gene YER039C): 2.1
The level of expressed mRNA in the presence of chemical substance/ (ratio to absence of chemical substance) (yeast gene YER057C): 1.0
The level of expressed mRNA in the presence of chemical substance/The level of expressed mRNA in the absence of chemical substance (yeast gene YER107C): 0.9
The level of expressed mRNA in the presence of chemical substance/The level of expressed mRNA in the absence of chemical substance (yeast gene YER130C): 1.6
The level of expressed mRNA in the presence of chemical substance/The level of expressed mRNA in the absence of chemical substance (yeast gene YFL028C): 1.4
The level of expressed mRNA in the presence of chemical substance/The level of expressed mRNA in the absence of chemical substance (yeast gene YFL043C): 1.5
The level of expressed mRNA in the presence of chemical substance/ (in its absence), gene YGL035C (yeast gene YGL035C, ratio of DNA chip fluorescence intensity to that without chemical substance): 1.1
The level of expressed mRNA in the presence of chemical substance/ (in its absence), gene YGL115W (yeast gene YGL115W, ratio of DNA chip fluorescence intensity to that without chemical substance): 0.7
The level of expressed mRNA in the presence of chemical substance/ (ratio to absence of chemical substance) (yeast gene YGL115W): 0.7
The level of expressed mRNA in the presence of chemical substance/The level of expressed mRNA in the absence of chemical substance (yeast gene YGL158W): 1.0
The level of expressed mRNA in the presence of chemical substance/ (ratio to absence), gene YGL187C (yeast gene YGL187C, mitochondria-located protein genes, 2 h culture with chemical): 0.7
The level of expressed mRNA in the presence of chemical substance/ (in its absence), gene YGL205W (yeast gene YGL205W, ratio of DNA chip fluorescence intensity to that without chemical substance): 1.0
The level of expressed mRNA in the presence of chemical substance/The level of expressed mRNA in the absence of chemical substance (yeast gene YGL229C): 1.7
The level of expressed mRNA in the presence of chemical substance/ in its absence, gene YGR062C (yeast gene YGR062C, energy system protein genes, 2 h culture with the chemical, ratio to control without chemical): 1.5
The level of expressed mRNA in the presence of chemical substance/ (ratio to absence), gene YGR062C (yeast gene YGR062C, mitochondria-located protein genes, 2 h culture with chemical): 1.5
The level of expressed mRNA in the presence of chemical substance/ (in its absence), gene YGR096W (yeast gene YGR096W, ratio of DNA chip fluorescence intensity to that without chemical substance): 1.1
The level of expressed mRNA in the presence of chemical substance/The level of expressed mRNA in the absence of chemical substance (yeast gene YGR136W): 1.7
The level of expressed mRNA in the presence of chemical substance/The level of expressed mRNA in the absence of chemical substance (yeast gene YGR189C): 1.2
The level of expressed mRNA in the presence of chemical substance/The level of expressed mRNA in the absence of chemical substance (yeast gene YGR213C): 30.4
The level of expressed mRNA in the presence of chemical substance/The level of expressed mRNA in the absence of chemical substance (yeast gene YGR257C): 2.0
The level of expressed mRNA in the presence of chemical substance/ (in its absence), gene YGR287C (yeast gene YGR287C, ratio of DNA chip fluorescence intensity to that without chemical substance): 1.7
The level of expressed mRNA in the presence of chemical substance/ (in its absence), gene YGR288W (yeast gene YGR288W, ratio of DNA chip fluorescence intensity to that without chemical substance): 1.3
The level of expressed mRNA in the presence of chemical substance/ (ratio to absence of chemical substance) (yeast gene YHL028W): 2.1
The level of expressed mRNA in the presence of chemical substance/ (ratio to absence of chemical substance) (yeast gene YHL046C): 1.4
The level of expressed mRNA in the presence of chemical substance/The level of expressed mRNA in the absence of chemical substance (yeast gene YHR004C): 1.1
The level of expressed mRNA in the presence of chemical substance/The level of expressed mRNA in the absence of chemical substance (yeast gene YHR071W): 2.3
The level of expressed mRNA in the presence of chemical substance/The level of expressed mRNA in the absence of chemical substance (yeast gene YHR139C): 7.0
The level of expressed mRNA in the presence of chemical substance/The level of expressed mRNA in the absence of chemical substance (yeast gene YHR142W): 1.2
The level of expressed mRNA in the presence of chemical substance/ (in its absence), gene YHR210C (yeast gene YHR210C, ratio of DNA chip fluorescence intensity to that without chemical substance): 0.4
The level of expressed mRNA in the presence of chemical substance/ (in its absence), gene YIL006W (yeast gene YIL006W, ratio of DNA chip fluorescence intensity to that without chemical substance): 0.8
The level of expressed mRNA in the presence of chemical substance/ (ratio to absence of chemical substance) (yeast gene YIL011W): 0.5
The level of expressed mRNA in the presence of chemical substance/The level of expressed mRNA in the absence of chemical substance (yeast gene YIL123W): 0.4
